Biological target: plasmepsin II (Plasmodium falciparum, UniProt P46925)
Test: biochemical
Settings: Additional Examples table; FRET, pH 5, 37° C., 40 min, substrate 1 μM; read-out: IC50 (nM) on plasmepsin II

Chain of plasmepsin II (P46925 125-453): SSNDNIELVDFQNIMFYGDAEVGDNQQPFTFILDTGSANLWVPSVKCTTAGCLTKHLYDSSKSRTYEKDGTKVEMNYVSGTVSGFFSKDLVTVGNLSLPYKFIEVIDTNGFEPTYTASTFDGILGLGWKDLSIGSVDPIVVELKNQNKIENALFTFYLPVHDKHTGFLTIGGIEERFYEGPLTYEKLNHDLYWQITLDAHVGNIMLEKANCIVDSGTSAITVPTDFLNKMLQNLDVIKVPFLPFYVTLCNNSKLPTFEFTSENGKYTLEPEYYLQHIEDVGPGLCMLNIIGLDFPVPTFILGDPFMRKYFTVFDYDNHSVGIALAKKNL

SMILES	IC50 [nM]
CCCCCc1ccc(C(=O)N(Cc2ccc(-c3cccnc3)cc2)C2CCN(CC3=CCCCC3)CC2)cc1 [Example 61, N-(1-Cyclohex-1-enylmethyl-piperidin-4-yl)-4-pentyl-N-(4-pyridin-3-yl-benzyl)benzamide]	89
CCCCCc1ccc(C(=O)N(Cc2ccc(-c3ccc4c(c3)OCO4)cc2)C2CCN(Cc3ccc(O)cc3)CC2)cc1 [Example 62, N-(4-Benzo[1,3]dioxol-5-yl-benzyl)-N-[1-(4-hydroxybenzyl)piperidin-4-yl]-4-pentylbenzamide]	90
CCCCCc1ccc(C(=O)N(Cc2ccc(-c3ccccc3F)cc2)C2CCN(Cc3ccncc3)CC2)cc1 [Example 63, N-(2′-Fluorobiphenyl-4-ylmethyl)-4-pentyl-N-(1-pyridin-4-ylmethyl-piperidin-4-yl)benzamide]	95
CCCCCc1ccc(C(=O)N(Cc2ccc(-c3cccnc3)cc2)C2CCN(Cc3ccncc3)CC2)cc1 [Example 64, 4-Pentyl-N-(4-pyridin-3-yl-benzyl)-N-(1-pyridin-4-ylmethylpiperidin-4-yl)benzamide]	102
CCCCCc1ccc(C(=O)N(Cc2ccc(-c3ccccc3)cc2)C2CCN(Cc3cccnc3)CC2)cc1 [Example 65, N-Biphenyl-4-ylmethyl-4-pentyl-N-(1-pyridin-3-ylmethylpiperidin-4-yl)benzamide]	103
CCCCCc1ccc(C(=O)N(Cc2ccc(-c3ccncc3)cc2)C2CCN(Cc3ccccc3)CC2)cc1 [Example 66, N-(1-Benzylpiperidin-4-yl)-4-pentyl-N-(4-pyridin-4-ylbenzyl)benzamide]	104
CCCCCc1ccc(C(=O)N(Cc2ccc(-c3ccccc3Cl)cc2)C2CCN(Cc3ccccc3)CC2)cc1 [Example 68, N-(1-Benzylpiperidin-4-yl)-N-(2′-chlorobiphenyl-4-ylmethyl)-4-pentylbenzamide]	120
CCCCCc1ccc(C(=O)N(Cc2ccc(-c3ccccc3F)cc2)C2CCN(CC3=CCCCC3)CC2)cc1 [Example 69, N-(1-Cyclohex-1-enylmethylpiperidin-4-yl)-N-(2′-fluorobiphenyl-4-ylmethyl)-4-pentylbenzamide]	123
CCCCCc1ccc(C(=O)N(Cc2ccc(-c3ccccn3)cc2)C2CCN(CC3=CCCCC3)CC2)cc1 [Example 70, N-(1-Cyclohex-1-enylmethylpiperidin-4-yl)-4-pentyl-N-(4-pyridin-2-ylbenzyl)benzamide]	125
CCCCCc1ccc(C(=O)N(Cc2ccc(-c3ccccc3)cc2)C2CCN(Cc3ccoc3)CC2)cc1 [Example 71, N-Biphenyl-4-ylmethyl-N-(1-furan-3-ylmethyl-piperidin-4-yl)-4-pentylbenzamide]	127
CCCCCc1ccc(C(=O)N(Cc2ccc(-c3cccnc3)cc2)C2CCN(Cc3ccc(CO)o3)CC2)cc1 [Example 72, N-[1-(5-Hydroxymethyl-furan-2-ylmethyl)piperidin-4-yl]-4-pentyl-N-(4-pyridin-3-ylbenzyl)benzamide]	128
CCCCCc1ccc(C(=O)N(Cc2ccc(-c3cccnc3)cc2)C2CCN(CC3CC3)CC2)cc1 [Example 73, N-(1-Cyclopropylmethylpiperidin-4-yl)-4-pentyl-N-(4-pyridin-3-yl-benzyl)benzamide]	128
CCCCCc1ccc(C(=O)N(Cc2ccc(-c3cccc(C)c3)cc2)C2CCN(Cc3ccccc3)CC2)cc1 [Example 74, N-(1-Benzylpiperidin-4-yl)-N-(3′-methylbiphenyl-4-ylmethyl)-4-pentylbenzamide]	140
CCCCCc1ccc(C(=O)N(Cc2ccc(OCc3ccccc3)cc2)[C@H]2CCN(Cc3ccccc3)C2)cc1 [Example 75, N-(4-Benzyloxybenzyl)-N-((3S)-1-benzylpyrrolidin-3-yl)-4-pentylbenzamide]	141
CCCCCc1ccc(C(=O)N(Cc2ccc(-c3ccccc3F)cc2)C2CCN(Cc3ccc(O)cc3)CC2)cc1 [Example 76, N-(2′-Fluorobiphenyl-4-ylmethyl)-N-[1-(4-hydroxybenzyl)piperidin-4-yl]-4-pentylbenzamide]	152
CCCCCc1ccc(C(=O)N(Cc2ccc(C(F)(F)F)c(F)c2)C2CCN(Cc3ccccc3)CC2)cc1 [Example 77, N-(1-Benzylpiperidin-4-yl)-N-(3-fluoro-4-trifluoromethylbenzyl)-4-pentylbenzamide]	153
CCCCCc1ccc(C(=O)N(Cc2ccc(-c3ccccn3)cc2)C2CCN(Cc3ccoc3)CC2)cc1 [Example 78, N-(1-Furan-3-ylmethylpiperidin-4-yl)-4-pentyl-N-(4-pyridin-2-yl-benzyl)benzamide]	168
CCCCCc1ccc(C(=O)N(Cc2ccc(-c3ccccn3)cc2)C2CCN(Cc3ccncc3)CC2)cc1 [Example 79, 4-Pentyl-N-(4-pyridin-2-yl-benzyl)-N-(1-pyridin-4-ylmethylpiperidin-4-yl)benzamide]	176
CCCCCc1ccc(C(=O)N(Cc2ccc(OC(F)(F)F)cc2)C2CCN(Cc3ccccc3)CC2)cc1 [Example 80, N-(1-Benzylpiperidin-4-yl)-4-pentyl-N-(4-trifluoromethoxybenzyl)benzamide]	187
CCCCCc1ccc(C(=O)N(Cc2ccc(-c3ccccc3)cc2)C2CCN(Cc3ccc(O)cc3)CC2)cc1 [Example 81, N-Biphenyl-4-ylmethyl-N-[1-(4-hydroxybenzyl)piperidin-4-yl]-4-pentylbenzamide]	192
CCCCCc1ccc(C(=O)N(Cc2ccc(-c3ccccc3)cc2)C2CCN(CC3=CCCCC3)CC2)cc1 [Example 82, N-Biphenyl-4-ylmethyl-N-(1-cyclohex-1-enylmethylpiperidin-4-yl)-4-pentylbenzamide]	196
CCCCCc1ccc(C(=O)N(Cc2ccc(OC(C)C)cc2)C2CCN(Cc3ccccc3)CC2)cc1 [Example 83, N-(1-Benzylpiperidin-4-yl)-N-(4-isopropoxybenzyl)-4-pentylbenzamide]	204
CCCCCc1ccc(C(=O)N(Cc2ccc(-c3ccccn3)cc2)C2CCN(Cc3ccccc3)CC2)cc1 [Example 84, N-(1-Benzylpiperidin-4-yl)-4-pentyl-N-(4-pyridin-2-yl-benzyl)benzamide]	209
CCCCCc1ccc(C(=O)N(Cc2ccc(-c3cccnc3)cc2)C2CCN(Cc3cc4ccccc4o3)CC2)cc1 [Example 85, N-(1-Benzofuran-2-ylmethyl-piperidin-4-yl)-4-pentyl-N-(4-pyridin-3-yl-benzyl)benzamide]	211
CCCCCc1ccc(C(=O)N(Cc2ccc3ccccc3c2)C2CCN(Cc3ccccc3)CC2)cc1 [Example 86, N-(1-Benzylpiperidin-4-yl)-N-naphthalen-2-ylmethyl-4-pentylbenzamide]	248
CCCCCc1ccc(C(=O)N(Cc2ccc(-c3cncnc3)cc2)C2CCN(Cc3ccccc3)CC2)cc1 [Example 87, N-(1-Benzylpiperidin-4-yl)-4-pentyl-N-(4-pyrimidin-5-ylbenzyl)benzamide]	250

Other lines, results leading:

IC50 [nM]	SMILES
255	CCCCCc1ccc(CN(Cc2ccc(-c3ccc(OC)c(OC)c3)cc2)C2CCN(Cc3ccccc3)CC2)cc1 [Example 88, (1-Benzylpiperidin-4-yl)-(3′,4′-dimethoxybiphenyl-4-ylmethyl)-(4-pentyl-benzyl)amine]
260	CCCCCc1ccc(C(=O)N(Cc2ccc(-c3ccc(F)cc3)cc2)C2CCN(Cc3ccccc3)CC2)cc1 [Example 89, N-(1-Benzylpiperidin-4-yl)-N-(4′-fluorobiphenyl-4-ylmethyl)-4-pentylbenzamide]
270	C=CCOc1ccc(CN(C(=O)c2ccc(CCCCC)cc2)C2CCN(Cc3ccccc3)CC2)cc1 [Example 90, N-(4-Allyloxybenzyl)-N-(1-benzylpiperidin-4-yl)-4-pentylbenzamide]
275	CCCCCc1ccc(CN(Cc2ccc(-c3ccc4c(c3)OCO4)cc2)C2CCN(Cc3ccccc3)CC2)cc1 [Example 91, (4-Benzo[1,3]dioxol-5-yl-benzyl)-(1-benzylpiperidin-4-yl)-(4-pentyl-benzyl)amine]
281	CCCCCc1ccc(C(=O)N(Cc2ccc(OCc3ccccc3)cc2O)C2CCN(Cc3ccccc3)CC2)cc1 [Example 92, N-(4-Benzyloxy-2-hydroxy-benzyl)-N-(1-benzylpiperidin-4-yl)-4-pentylbenzamide]
284	CCCCCc1ccc(C(=O)N(Cc2ccc3c(c2)OCO3)C2CCN(Cc3ccccc3)CC2)cc1 [Example 93, N-Benzo[1,3]dioxol-5-ylmethyl-N-(1-benzylpiperidin-4-yl)-4-pentyl-benzamide]
284	CCCCCc1ccc(C(=O)N(Cc2ccc(OCC)cc2)C2CCN(Cc3ccccc3)CC2)cc1 [Example 94, N-(1-Benzylpiperidin-4-yl)-N-(4-ethoxybenzyl)-4-pentylbenzamide]
294	CCCCCc1ccc(CN(Cc2ccc(-c3ccc(C#N)cc3)cc2)C2CCN(Cc3ccccc3)CC2)cc1 [Example 95, 4′-{[(1-Benzylpiperidin-4-yl)-(4-pentylbenzyl)amino]methyl}-biphenyl-4-carbonitrile]
319	CCCCCc1ccc(C(=O)N(Cc2ccc(-c3ccccc3)cc2)C2CCN(Cc3cccc(C(F)(F)F)c3)CC2)cc1 [Example 96, N-Biphenyl-4-ylmethyl-4-pentyl-N-[1-(3-trifluoromethylbenzyl)piperidin-4-yl]benzamide]
322	CCCCCCc1ccc(C(=O)N(Cc2ccc(-c3ccccc3)cc2)C2CCN(Cc3ccccc3)CC2)cc1 [Example 97, N-(1-Benzylpiperidin-4-yl)-N-biphenyl-4-ylmethyl-4-hexyl-benzamide]
322	CCCCCc1ccc(C(=O)N(Cc2ccc(OC)cc2)C2CCN(Cc3ccccc3)CC2)cc1 [Example 98, N-(1-Benzylpiperidin-4-yl)-N-(4-methoxybenzyl)-4-pentyl-benzamide]
361	CCCCCc1ccc(C(=O)N(Cc2ccc(-c3ccccc3)cc2)C2CCN(Cc3ccccc3O)CC2)cc1 [Example 99, N-Biphenyl-4-ylmethyl-N-[1-(2-hydroxybenzyl)piperidin-4-yl]-4-pentylbenzamide]
374	CCCCC[C@H]1CC[C@H](C(=O)N(Cc2ccc(-c3ccccc3)cc2)C2CCN(Cc3ccccc3)CC2)CC1 [Example 100, trans-4-Pentylcyclohexane carboxylic acid(1-benzylpiperidin-4-yl)-biphenyl-4-ylmethyl amide]

From patent US20040102431A1, “Substituted amino-aza-cycloalkanes useful against malaria” (priority 2000, published 2004)
